Reference: patent US20070075630A1, “Organic compositions” (priority 2005, published 2007)

Assay: solubility of organic semiconductor in solvent (Table 1, formulation and processing)
Type: physicochemical
Conditions: for solubility in THF: solvent THF

| SMILES | solubility in THF | solubility (in words, compared with 6PTTP6) (solvent not stated) |
| --- | --- | --- |
| CC(CO)COc1ccc(-c2ccc(-c3ccc(-c4ccc(OCC(C)CO)cc4)s3)s2)cc1 (stereo not drawn) [3(3OH,2Me)-O-PTTP- O-3(3OH,2Me), 3-(4-{5′-[4-(3-Hydroxy-2-methyl-propoxy)-phenyl]-[2,2′]bithiophenyl-5-yl}-phenoxy)-2-methyl-propan-1-ol] | Low solubility in THF (600 ppm) |  |
| CC(COc1ccc(-c2ccc(-c3ccc(-c4ccc(OCC(C)COC5CCCCO5)cc4)s3)s2)cc1)COC1CCCCO1 (stereo not drawn) [3(3THPO,2Me)-O-PTTP- O-3(THPO,2Me), 5,5′-Bis-[4-(2-methyl-propoxy-tetrahydro-pyran)-phenoxy]-[2,2′]bithiophenyl] | Well soluble in THF (about 75,000 ppm) |  |
| CCCOCCc1ccc(-c2ccc(-c3ccc(-c4ccc(CCOCCC)cc4)s3)s2)cc1 [3O2PTTP2O3, 5,5═-Bis(4-(propxyethyl)phenyl)-2,2′-bithiophene] |  | Solubility like 6PTTP6 |
| CCC(CC)COc1ccc(-c2ccc(-c3ccc(-c4ccc(OCC(CC)CC)cc4)s3)s2)cc1 [4(2Et)-O-PTTP-O- 4(2Et), 5,5′-bis(4-(2-ethylbutyloxy)phenyl)-2,2′-bithiophene] | solubility in THF about 4,900 ppm |  |
| CC(C)CCCOc1ccc(-c2ccc(-c3ccc(-c4ccc(OCCCC(C)C)cc4)s3)s2)cc1 [5(4Me)-O-PTTP-O-5(4Me), 5,5′-bis(4-(4-methylpentyloxy)phenyl)-2,2′-bithiophene] | solubility in THF about 5400 ppm. DSC: mp =250° C., smaller |  |
| CCCCCC(CC)Oc1ccc(-c2ccc(-c3ccc(-c4ccc(OC(CC)CCCCC)cc4)s3)s2)cc1 (stereo not drawn) [6(1Et)-O-PTTP-O- 6(1Et), 5,5═-Bis-[4-(1-ethyl-hexyloxy)-phenyl]-[2,2′]bithiophenyl] | Well soluble in THF (about 330,000 ppm) DSC: mp = 97-102° C., (broad transition) |  |
| CCCCCC(C)Oc1ccc(-c2ccc(-c3ccc(-c4ccc(OC(C)CCCCC)cc4)s3)s2)cc1 (stereo not drawn) [6(1Me)-O-PTTP-O- 6(1Me), 5,5′bis(4-(1-methylhexyloxy)phenyl)-2,2′-bithiophene] | ~89,000 ppm |  |
| CCCCC(C)COc1ccc(-c2ccc(-c3ccc(-c4ccc(OCC(C)CCCC)cc4)s3)s2)cc1 (stereo not drawn) [6(2Me)-O-PTTP-O- 6(2Me), 5,5′-bis(4-(2-methylhexyloxy)phenyl)-2,2′-bithiophene] | sufficiently soluble in THF (about 61,000 ppm) DSC: mp = 197 °C |  |
| CC(C)(C)[Si](OCCCCCCOc1ccc(-c2ccc(-c3ccc(-c4ccc(OCCCCCCO[Si](c5ccccc5)(c5ccccc5)C(C)(C)C)cc4)s3)s2)cc1)(c1ccccc1)c1ccccc1 [6(6TBDPSO)-O- PTTP-O- 6(6TBDPSO), 5,5′-Bis-{4-[6-(tert-butyl-diphenyl-silanyloxy)-hexyloxy]-phenyl}-[2,2′]bithiophenyl] | # THF (about 310,000 ppm) |  |
| CCCCCCOc1ccc(-c2ccc(-c3ccc(-c4ccc(OCCCCCC)cc4)s3)s2)cc1 [6-O-PTTP-O-6, 5,5′-bis(4-hexyloxyphenyl)-2,2′-bithiophene] | solubility in THF about 600 ppm, lowest value by far. Differential scanning calorimetry |  |
| C=CC(C=C)OC(=O)CCCCCOc1ccc(-c2ccc(-c3ccc(-c4ccc(OCCCCCC(=O)OC(C=C)C=C)cc4)s3)s2)cc1 [6-[4-(5′-[5-(1-Vinyl-allyloxycarbonyl)-pentyloxy]-phenyl}-[2,2′]bithiophenyl-5-yl)-phenoxy]-hexanoic acid 1-vinyl-allyl ester] | well soluble in THF (131,000 ppm) |  |
| CC(C)CCCC(C)CCOc1ccc(-c2ccc(-c3ccc(-c4ccc(OCCC(C)CCCC(C)C)cc4)s3)s2)cc1 (stereo not drawn) [8(3,7Me)-O-PTTP-O- 8(3,7Me), 5,5′-bis(4-(3,7-dimethyloctyloxy)phenyl)-2,2′-bithiophene] | solubility in THF about 12,000 ppm DCS: mp = 192° C., |  |
